Reference: patent US20070191334A1, “Tricyclic imidazopyridines” (ALTANA PHARMA AG, priority 2004, published 2007)

The compounds below were run on pentagastrin-stimulated acid secretion of the perfused rat stomach (assay: Secretion-inhibiting action on the perfused rat stomach (pentagastrin-stimulated acid secretion, intraduodenal administration in vivo)). Details: Table A, dose 1 μmol/kg i.d., anesthetized CD rat.
Excerpt: Testing of the Secretion-Inhibiting Action on the Perfused Rat Stomach
In Table A which follows, the influence of the compounds of the formula 1 according to the invention on the pentagastrin-stimulated acid secretion of the perfused rat stomach after intraduodenal administration in vivo is shown.
In Table B which follows, the influence of the compounds of the formula 1-a according to the invention and of their optical antipodes of the formula 1-b on the pentagastrin-stimulated acid secretion of the perfused rat stomach after intraduodenal administration in vivo is shown.
The abdomen of anesthetized rats (CD rat, female, 200-250 g; 1.5 g/kg i.m. urethane) was opened after tracheotomy by a median upper abdominal incision and a PVC catheter was fixed transorally in the esophagus and another via the pylorus such that the ends of the tubes just projected into the gastric lumen. The catheter leading from the pylorus led outward into the right abdominal wall through a side opening.
After thorough rinsing (about 50-100 ml), warm (37° C.) physiological NaCl solution was continuously passed through the stomach (0.5 ml/min, pH 6.8-6.9; Braun-Unita I). The pH (pH meter 632, glass electrode EA 147; φ=5 mm, Metrohm) and, by titration with a freshly prepared 0.01N NaOH solution to pH 7 (Dosimat 665 Metrohm), the secreted HCl were determined in the effluent in each case collected at an interval of 15 minutes.
The gastric secretion was stimulated by continuous infusion of […] (=1.65 ml/h) of i.v. pentagastrin (left femoral vein) about 30 min after the end of the operation (i.e. after determination of 2 preliminary fractions). The substances to be tested were administered intraduodenally in a 2.5 ml/kg liquid volume 60 min after the start of the continuous pentagastrin infusion. The body temperature of the animals was kept at a constant 37.8-38° C. by infrared irradiation and heat pads (automatic, stepless control by means of a rectal temperature sensor).

Compound | Inhibition of acid secretion (%)
COCCNC(=O)c1c(C)nc2c3c(c(C(=O)N(C)C)cn12)CCC(c1ccccc1)O3 (centres unmarked) [Example 4, 2-Methyl-9-phenyl-7H-8,9-dihydro-pyrano[2,3-c]imidazo[1,2-a]pyridine-3,6-dicarboxylic acid 3-[(2-methoxyethyl)amide]6-dimethylamide] | >40%
CC#CC(=O)c1c(C)nc2c3c(c(C(=O)N(C)C)cn12)CCC(c1ccccc1)O3 (centres unmarked) [Example 6, 2-Methyl-3-(1-oxo-2-butynyl)-9-phenyl-7H-8,9-dihydro-pyrano[2,3-c]imidazo[1,2-a]pyridine-6-carboxylic acid dimethylamide] | >40%
CC(=O)c1c(C)nc2c3c(c(C(=O)N(C)C)cn12)CCC(c1ccccc1)O3 (centres unmarked) [Example 9, 3-Acetyl-2-methyl-9-phenyl-7H-8,9-dihydro-pyrano[2,3-c]imidazo-[1,2-a]pyridine-6-carboxylic acid dimethylamide] | >40%
Cc1nc2c3c(c(C(=O)N4CCC4)cn2c1C)CCC(c1ccccc1)O3 (centres unmarked) [Example 11, (2,3-Dimethyl-9-phenyl-7H-8,9-dihydro-pyrano[2,3-c]-imidazo[1,2-a]pyridin-6-yl)-azetidin-1-yl methanone] | >70%
Cc1nc2c3c(c(C(=O)NC4CC4)cn2c1C)CCC(c1ccccc1)O3 (centres unmarked) [Example 13, 2,3-Dimethyl-9-phenyl-7H-8,9-dihydro-pyrano[2,3-c]-imidazo[1,2-a]pyridine-6-carboxylic acid cyclopropylamide] | >70%
